How the values were obtained:
Type in all cases: in vivo
male ICR mouse [1] = assay: Acetic acid-induced writhing test in mouse; conditions: po, p.o, acetic acid i.p. 1 hour after dosing, writhing counted for 10 minutes, read-out: Writhing Test Suppression of pain response
Experimental: An acetic acid-induced writhing test is one of models for measuring an analgesic effect of drugs. A test material dissolved in a suitable vehicle was orally administered to a male ICR mouse weighing 30 to 35 g at an amount of 10 mg/kg. After 1 hour of the oral administration, […] of an aqueous 0.8% acetic acid solution was intraperitoneally injected into the male ICR mouse to induce the abdominal pain of the male ICR mouse. Right after the administration of acetic acid, the male ICR mouse was put into an empty cage, and the number of writhing behaviors of the mice was counted for 10 minutes. The term “writhing” represents a reflex action in which the mouse overtly extends its abdomen by stretching its hind legs due to the abdominal pain. The analgesic effect of the test material is represented by the ‘suppression of pain response’ {[(Writhing number of vehicle-administered group−Writhing number of Test material—administered group)/(Writhing number of Solvent-administered group)]×100%}.

male ICR mouse [2] = assay: Hot plate test in mouse; conditions: po, p.o, 1 hour after dosing, hot plate 55° C., read-out: Hot Plate Test Increase in latency of avoidance response
Experimental: A hot plate test is one of representative models for measuring an analgesic effect of drugs. A test material dissolved in a suitable vehicle was orally administered to a male ICR mouse weighing 25 to 30 g at an amount of 30 mg/kg. After 1 hour of the oral administration, the mouse was put on a hot plate (55° C.). A latency was recorded from the time right after a mouse is put on a hot plate to the time when avoidance responses (flinching, licking, jumping, etc.) to pain are observed from forefeet or rear legs of the mouse. The analgesic effect of the test material is represented by the ‘Increase in latency of avoidance response’ {[(Latency of avoidance response to pain of Test material-administered group−Latency of avoidance response to pain of vehicle-administered group)/(Latency of avoidance response to pain of Solvent-administered group)]×100%}.

male ICR mouse [3] = assay: Elevated plus maze (EPM) test in mouse; conditions: po, p.o, 1 hour after dosing, 5 minutes observation, read-out: Elevated Plus Maze Change index in Open-Arm Time
Source text: Elevated plus maze (EPM) is one of representative models that examine an anti-anxiety activity of a test material. Equipment used for an EPM test has a crossroad shape raised in a high position off the ground, and is configured in such a cliff shape that both sides of one road are protected with high walls and the other road is free from the wall. Among them, the road in the cliff shape is referred to as an ‘open arm,’ and the road protected by the walls is referred to as a ‘close arm.’ In this case, a level of the anxiety of a mouse may be measured by determining in which arm the mouse stays longer. In general, the mouse stays longer in the close arm than the open arm, but a mouse treated with a medicine showing an anti-anxiety effect stays relatively longer in the open arm. A test material dissolved in a suitable vehicle was orally administered to a male ICR mouse weighing 20 to 25 g at an amount of 10 mg/kg. After 1 hour of the oral administration, the mouse was put on the center of an EPM equipment to measure how long the mouse stays in the open arm within a time range of 5 minutes. The anti-anxiety effect of the test material is represented by the ‘Change index in Open-Arm Time’ {[(open arm duration in test material-administered group−open arm duration in vehicle-administered group)/(open arm duration in vehicle administered group)]×100%}.

male ICR mouse [4] = assay: Head twitch potentiation induced by 5-HTP (5-HTP potentiation test) in mouse; conditions: po, 0.5 h, p.o, 5-HTP 80 mg/kg + Carbidopa 25 mg/kg i.p. 30 minutes after dosing, head twitches counted for 2 minutes, negative = 5-HT2A antagonist, read-out: 5-HTP Potentiation Increase rate in Head Twitch No.
Experimental: When 5-hydroxy-L-tryptophan (5-HTP) is administered into a mouse, a head twitch phenomenon is observed since serotonin is increasingly secreted in the mouse. […] By using this principle, it is possible to search an effect of the representative antidepressant agent. A test material dissolved in a suitable vehicle was orally administered to a male ICR mouse weighing 20 to 25 g at an amount of 30 mg/kg. After 30 minutes of the oral administration, 5-HTP (80 mg/kg) and 5-HTP peripheral decarbozylase inhibitor ‘Carbidopa’ (25 mg/kg) were intraperitoneally administered to the mouse. After 30 minutes of the intraperitoneal administration, the mouse was put into an observation cage, and head twitches of the mouse were counted for 2 minutes. The anti-depression effect of the test material is represented by the ‘Increase rate in Head Twitch No.’ {[(Head Twitch No. of Test material-administered group−Head Twitch No. of vehicle-administered group)/(Head Twitch No. of vehicle-administered group)]×100%}. […] In addition to the selective serotonin reuptake inhibitor (SSRI) that has been widely used as an antidepressant agent in the clinical fields, it was tested that 5-HT2A antagonists such as nefazodone and trazodone also have an antidepressant effect.

| Structure (SMILES) | inhibition in vivo at 10 mg/kg (male ICR mouse [1]) [%] | change in vivo at 30 mg/kg (male ICR mouse [2]) [%] | change in vivo at 10 mg/kg (male ICR mouse [3]) [%] | change in vivo at 30 mg/kg (male ICR mouse [4]) [%] |
| --- | --- | --- | --- | --- |
| NC(=O)OC(CC(=O)N1CCN(c2cccc(F)c2)CC1)c1ccccc1 (centres unmarked) [Example 30, carbamic acid 3-[4-(3-fluoro-phenyl)-piperazin-1-yl]-3-oxo-1-phenyl-propyl ester] | 9.2 | 27.1 | 102 | 40 |
| Cc1ccc(C(CC(=O)N2CCN(c3ccccc3)CC2)OC(N)=O)cc1 (centres unmarked) [Example 32, carbamic acid 3-oxo-3-(4-phenyl-piperazin-1-yl)-1-p-tolyl-propyl ester] | 6 | 28.2 | 9.5 | -40 |
| Cc1ccc(N2CCN(C(=O)CC(OC(N)=O)c3ccccc3)CC2)cc1 (centres unmarked) [Example 4, carbamic acid 3-oxo-1-phenyl-3-(4-p-tolyl-piperazin-1-yl)-propyl ester] | 74.6 | 34.1 | 41.1 | -7.1 |
| Cc1ccc(N2CCN(C(=O)C[C@H](OC(N)=O)c3ccccc3)CC2)cc1 [Example 81, (S)-carbamic acid 3-[4-(4-methyl)-phenylpiperazin-1-yl]-3-oxo-1-phenyl-propyl ester] | 20.1 | 9.2 | 23 | -21.4 |
| NC(=O)OC(CC(=O)N1CCN(c2ccccc2)CC1)c1ccc([N+](=O)[O-])cc1 (centres unmarked) [Example 34, carbamic acid 1-(4-nitro-phenyl)-3-oxo-3-(4-phenyl-piperazin-1-yl)-propyl ester] | 38.4 | 0.6 | 6.5 | 2.9 |
| COc1ccc(N2CCN(C(=O)C[C@H](OC(N)=O)c3ccccc3)CC2)cc1OC [Example 65, (S)-carbamic acid 3-[4-(3,4-dimethoxy-phenyl)-piperazin-1-yl]-3-oxo-1-phenyl-propyl ester] | – | 38.6 | 74.7 | 91.6 |
| COc1ccc(N2CCN(C(=O)C[C@H](OC(N)=O)c3ccccc3)CC2)cc1 [Example 69, (S)-carbamic acid 3-[4-(4-methoxy-phenyl)-piperazin-1-yl]-3-oxo-1-phenyl-propyl ester] | – | 22.9 | 57.3 | -14.3 |
| NC(=O)OC(CC(=O)N1CCN(c2ccc(F)c(F)c2)CC1)c1ccccc1 (centres unmarked) [Example 33, carbamic acid 3-[4-(3,4-difluoro-phenyl)-piperazin-1-yl]-3-oxo-1-phenyl-propyl ester] | 74.5 | 43.6 | – | – |
| COc1ccc(N2CCN(C(=O)CC(OC(N)=O)c3ccccc3)CC2)cc1 (centres unmarked) [Example 2, carbamic acid 3-[4-(4-methoxy-phenyl)-piperazin-1-yl]-3-oxo-1-phenyl-propyl ester] | 54.6 | 37.5 | – | – |
| COc1ccc(N2CCN(C(=O)CC(OC(N)=O)c3ccc(C)cc3)CC2)cc1OC (centres unmarked) [Example 8, carbamic acid 3-[4-(3,4-dimethoxy-phenyl)-piperazin-1-yl]-3-oxo-1-p-tolyl-propyl ester] | 30.1 | 10.9 | – | – |
| NC(=O)OC(CC(=O)N1CCN(c2ncc(Cl)cc2Cl)CC1)c1ccccc1 (centres unmarked) [Example 26, carbamic acid 3-[4-(3,5-dichloro-pyridin-2-yl)-piperazin-1-yl]-3-oxo-1-phenyl-propyl ester] | 30.8 | 20.6 | – | – |
| NC(=O)OC(CC(=O)N1CCN(c2ncccn2)CC1)c1ccccc1 (centres unmarked) [Example 25, carbamic acid 3-oxo-1-phenyl-3-(4-pyrimidin-2-yl-piperazin-1-yl)-propyl ester] | 59.3 | 15.9 | – | – |
| NC(=O)OC(CC(=O)N1CCN(c2ccc(Cl)cc2)CC1)c1ccccc1 (centres unmarked) [Example 38, carbamic acid 3-[4-(4-chloro-phenyl)-piperazin-1-yl]-3-oxo-1-phenyl-propyl ester] | 66.1 | 38.3 | – | – |
| COc1ccc(N2CCN(C(=O)CC(OC(N)=O)c3ccccc3)CC2)c(OC)c1 (centres unmarked) [Example 9, carbamic acid 3-[4-(2,4-dimethoxy-phenyl)-piperazin-1-yl]-3-oxo-1-phenyl-propyl ester] | 33.1 | 16.4 | – | – |
| NC(=O)OC(CC(=O)N1CCN(c2ccc3c(c2)OCO3)CC1)c1ccccc1 (centres unmarked) [Example 14, carbamic acid 3-(4-benzo[1,3]dioxol-5-yl-piperazin-1-yl)-3-oxo-1-phenyl-propyl ester] | 64 | 17.8 | – | – |
| COc1ccc(N2CCN(C(=O)CC(OC(N)=O)c3ccccc3)CC2)cc1OC (centres unmarked) [Example 5, carbamic acid 3-[4-(3,4-dimethoxy-phenyl)-piperazin-1-yl]-3-oxo-1-phenyl-propyl ester] | 79.7 | 39.2 | – | – |
| NC(=O)OC(CC(=O)N1CCN(c2ccccc2)CC1)c1ccccc1[N+](=O)[O-] (centres unmarked) [Example 42, carbamic acid 1-(2-nitro-phenyl)-3-oxo-3-(4-phenyl-piperazin-1-yl)-propyl ester] | – | – | 27.3 | 33.3 |
| COc1ccc(N2CCN(C(=O)CC(OC(N)=O)c3ccc(F)cc3)CC2)cc1OC (centres unmarked) [Example 7, carbamic acid 3-[4-(3,4-dimethoxy-phenyl)-piperazin-1-yl]-1-(4-fluoro-phenyl)-3-oxo-propyl ester] | 40.9 | 14.7 | – | – |
| COc1ccc(N2CCN(C(=O)CC(OC(N)=O)c3ccc(Cl)cc3)CC2)cc1OC (centres unmarked) [Example 6, carbamic acid 1-(4-chloro-phenyl)-3-[4-(3,4-dimethoxy-phenyl)-piperazin-1-yl]-3-oxo-propyl ester] | 44.8 | 11 | – | – |
| COc1ccc(C(CC(=O)N2CCN(c3ccccc3)CC2)OC(N)=O)cc1 (centres unmarked) [Example 15, carbamic acid 1-(4-methoxy-phenyl)-3-oxo-3-(4-phenyl-piperazin-1-yl)-propyl ester] | 35.1 | 17.9 | – | – |
| NC(=O)OC(CC(=O)N1CCN(c2ccccn2)CC1)c1ccccc1 (centres unmarked) [Example 24, carbamic acid 3-oxo-1-phenyl-3-(4-pyridin-2-yl-piperazin-1-yl)-propyl ester] | 61.2 | 28.1 | – | – |
| COc1ccc(N2CCN(C(=O)CCC(OC(N)=O)c3ccccc3)CC2)cc1OC (centres unmarked) [Example 41, carbamic acid 4-[4-(3,4-dimethoxy-phenyl)-piperazin-1-yl]-4-oxo-1-phenyl-butyl ester] | 31.2 | 28.7 | – | – |

Reference: US8901116B2, “Method for treating pain, anxiety or depression using carbamoyloxy alkanoyl piperazine compound” (SK Biopharmaceuticals Co., Ltd., priority 2007, dated 2014)
